Laboratory results reported in patent publication US5424325A, “Aminoketone derivatives” (Mitsubishi Kasei Corporation, priority 1992, dated 1995).
pIC50: −log10 of the molar value.

Experiments:
m-calpain = target: T1, m-calpain (Rattus norvegicus, UniProt Q07009); assay: Measurement of inhibitory activity against thiol protease (m-calpain purified from rat brain); type: biochemical; details: m-calpain purified from a brain of rat
T1 construct: m-calpain was purified from a brain of rat; from tissue; host or cells: rat brain
T1 sequence (Q07009 20-700 limits assumed): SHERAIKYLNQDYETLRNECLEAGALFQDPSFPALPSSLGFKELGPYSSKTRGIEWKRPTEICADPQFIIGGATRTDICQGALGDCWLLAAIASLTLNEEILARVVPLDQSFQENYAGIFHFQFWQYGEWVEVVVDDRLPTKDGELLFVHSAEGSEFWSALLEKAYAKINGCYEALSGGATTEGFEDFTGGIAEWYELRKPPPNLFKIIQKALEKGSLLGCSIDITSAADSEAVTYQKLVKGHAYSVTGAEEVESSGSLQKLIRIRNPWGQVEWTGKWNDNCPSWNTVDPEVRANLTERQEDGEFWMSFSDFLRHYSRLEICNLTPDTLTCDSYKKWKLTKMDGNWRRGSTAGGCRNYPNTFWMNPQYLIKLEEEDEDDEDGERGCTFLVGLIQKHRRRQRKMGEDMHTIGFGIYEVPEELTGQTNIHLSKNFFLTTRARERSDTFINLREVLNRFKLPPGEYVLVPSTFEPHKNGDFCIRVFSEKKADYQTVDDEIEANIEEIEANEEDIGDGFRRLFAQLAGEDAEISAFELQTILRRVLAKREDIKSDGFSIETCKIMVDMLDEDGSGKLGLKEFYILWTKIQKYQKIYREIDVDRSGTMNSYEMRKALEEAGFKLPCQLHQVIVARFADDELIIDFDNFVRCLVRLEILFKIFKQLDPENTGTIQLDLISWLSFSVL
T1 sequence (Q64537 1-270 partner): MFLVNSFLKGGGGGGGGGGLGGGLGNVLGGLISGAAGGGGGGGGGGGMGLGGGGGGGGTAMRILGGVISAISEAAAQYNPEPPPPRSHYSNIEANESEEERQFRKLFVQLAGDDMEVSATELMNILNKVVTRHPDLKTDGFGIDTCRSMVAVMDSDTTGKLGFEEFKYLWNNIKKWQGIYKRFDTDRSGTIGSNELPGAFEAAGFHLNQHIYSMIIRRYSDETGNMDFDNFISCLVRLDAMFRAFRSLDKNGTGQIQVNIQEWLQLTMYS
Protocol: Measurement of Inhibitory Activity against Thiol Protease
Through the known method disclosed in Journal of Biological Chemistry, vol. 259, page 3210, 1984, m-calpain was purified from a brain of rat. The inhibitory activity against it was measured and determined according to the method disclosed in Journal of Biological Chemistry, vol. 259, page 12489, 1984.

[1] = system: microtubule-associated protein; details: after the brain ischemia; cited from earlier work
[2] = system: brain trauma models of rat; details: cited from earlier work

Structure (SMILES) | pIC50 (m-calpain) | also measured
CCCC[C@H](NC(=O)COc1ccccc1)C(=O)CSCc1ccsc1 [17 (No. 86), (S)-3-phenoxyacetylamino-1-(3-thienylmethylthio)-2-heptanone] | 4.91 | –
CCCC[C@H](NC(=O)COc1cccc(OC)c1)C(=O)CSCc1ccsc1 [18 (No. 87), (S)-3-(3-methoxyphenoxyacetylamino)-1-(3-thienylmethylthio)-2-heptanone] | 4.89 | –
COc1ccc(/C=C/C(=O)N[C@@H](Cc2ccccc2)C(=O)CSCc2ccsc2)c(OC)c1 [60 (No. 219), (S)-3-(2,4-dimethoxycinnamoylamino)-4-phenyl-1-(3-thienylmethylthio)-2-butanone] | 4.84 | –
CC(C)CCNC(=O)[C@H](CC(C)C)NC(=O)[C@H]1O[C@@H]1C(=O)O [E-64-C] | – | degradation of microtubule-associated protein [1]: inhibits the degradation of microtubule-associated protein after the brain ischemia
CC(=O)N[C@@H](CC(C)C)C(=O)N[C@@H](CC(C)C)C(=O)N[C@H](C=O)CCCNC(=N)N [leupeptin] | – | protection of axon [2]: can protect axon

More lines, in order of rising pIC50 (m-calpain), values ahead:

pIC50 (m-calpain) | Structure (SMILES) | also measured
4.77 | O=C(COc1ccccc1)N[C@@H](Cc1ccccc1)C(=O)CSCc1ccco1 [38 (No. 171), (S)-1-furfurylthio-3-phenoxyacetylamino-4-phenyl-2-butanone] | –
5.35 | COc1cccc(OCC(=O)N[C@@H](Cc2ccccc2)C(=O)CSCc2ccsc2)c1 [58 (No. 216), (S)-3-(3-methoxyphenoxyacetylamino)-4-phenyl-1-(3-thienylmethylthio)-2-butanone] | –
